Several values for one entry are separate records, joined by “and”; a condition that tells them apart may be missing. Identical values can stand only once. Like-named read-outs stand apart in the source and are kept apart here. Square brackets hold non-standard residues; d marks the D form. Peptide text beside a SMILES is read from it.
How the values were obtained:
[1] = test system: defibrinated sheep blood (red blood cells); experiment: Hemolysis assay; format: cell-based; conditions: 200 µg/mL compound, 20 h incubation at 37 °C with defibrinated sheep blood, PBS 0.002% Tween20, absorbance 415 nm, relative to 0.1% Triton X-100; n=3 technical replicates
Experimental: Defibrinated sheep blood (Thermo Fisher Scientific) and a phosphate-buffered saline (PBS) buffer containing 0.002% Tween20 were used in this assay. The red blood cells were washed with buffer followed by centrifugation (400 g for 15 min at 4 °C). The red blood cells were then normalized to obtain a positive control read-out around 2.5 at 415 nm to stay in the linear range with the maximum sensitivity. A serial dilution of the compounds (200–1.56 µg/mL, 75 µL) was prepared in a 96-well plate. Each plate contained a positive control (0.1% Triton X-100 final concentration, 75 µL) and the negative control (buffer, 75 µL). After addition of normalized blood cells (75 µL), the plates were incubated for 20 h at 37 °C at 500 rpm. The plates were centrifuged (800× g for 5 min at room temperature). For the next step flat-bottom polystyrene plates were prepared with 100 µL buffer in each well. Aliquots of 25 µL supernatant from the centrifuged plates were then transferred to their respective wells in the flat-bottom plate. Absorbance values where measured at 415 nm and corrected for background (negative control) and transformed to a percentage hemolysis relative to the positive control.

[2] = test system: E. coli BW25113; format: cell-based, Escherichia coli; conditions: for FICi: BW25113, 20 h; for MICpep: synergist alone, E. coli BW25113, from checkerboard with rifampicin; for MSCpep: synergist concentration in the combination with rifampicin giving the lowest FICi; for MSCpep / MSCrif: E. coli BW25113; for MSCrif: rifampicin concentration in the combination giving the lowest FICi
Experimental: (§1) All peptides were screened for antimicrobial activity against E. coli BW25113, E. coli ATCC25922, and E. coli W3110. A select group of the peptides was further tested against E. coli mcr-1, E. coli EQASmcr-1 (EQAS 2016 412016126), E. coli EQASmcr-2 (EQAS 2016 KP37), E. coli EQASmcr-3 (EQAS 2017 2013-SQ352), K. pneumoniae ATCC13883, P. aeruginosa ATCC27853, and A. baumannii ATCC17978. The antimicrobial assay was performed according to CLSI guidelines. Bacteria were plated out directly from their glycerol stocks on blood agar plates, incubated overnight at 37 °C, and then kept in the fridge. The blood agar plates were only used for 2 weeks and then replaced.
(§2) One colony from a blood agar plates was inoculated in Lysogeny Broth (LB) at 37 °C until a 0.5 optical density at 600 nm (OD600) was reached (compared to the sterility control of LB). The bacterial suspension was diluted in fresh LB to 2.0 × 10^6 CFU/mL. The serial dilutions were prepared in polypropylene microtiter plates: a stock of the test compounds was prepared with a 2x final concentration in LB. Moreover, 100 µL of the stock was added to the wells of the top row of which 50 µL was used for the serial dilution. The bottom row of each plate was used as the positive (50 µL of LB) and negative controls (100 µL of LB) (6 wells each). Furthermore, 50 µL of the 2.0 × 10^6 CFU/mL bacterial stock was added to each well except for the negative controls, adding up to a total volume of 100 µL per well. The plates were sealed with a breathable seal and incubated for 20 h at 37 °C and 600 rpm.
(§3) Two 96-well plates were required per compound. A serial dilution of the compound was performed on two plates from row A–G using with LB as medium. Row H was filled with 25 µL medium. On a separate plate a negative control (8 wells, 100 μL medium) was prepared. For all concentrations of antibiotic a specific stock was prepared. 25 µL medium was added to the 0 µg/mL antibiotic columns (plate I, column 1–3). Of each antibiotic stock 25 µL was added to three columns to obtain triplicates for every condition. Both plates contained 50 µL in each well to which 50 µL bacterial stock was added (see the protocol of the MIC assays) and the plates were sealed. After incubation for 20 h at 37 °C while shaking, the breathable seals were removed and the density of the bacterial suspensions measured at 600 nm (OD600) using a Tecan Spark plate reader. The OD600 values were transformed to a 2D gradient with the negative control as minimum and the positive control (wells G1, G2, and G3) as maximum in excel. The FICi was calculated using Equation (1) with a FICi ≤ 0.5 indicating synergy. FICi = (MSCa/MICa) + (MSCb/MICb),(1)
(§4) Calculation of the FICi: MSCa = concentration of the […] in combination with the antibiotic that results in the lowest FICi. MICa = MIC of the antibiotic without synergist (row G). MSCb = concentration of the synergist in combination with the antibiotic that results in the lowest FICi. MICb = MIC of the synergist itself (Column 1–3, plate I).

[3] = test system: E. coli BW25113; experiment: Checkerboard assay with erythromycin; format: cell-based, Escherichia coli; conditions: for MSCery: erythromycin concentration in the combination with the synergist giving the lowest FICi, E. coli BW25113; for MIC of the peptide (MICpep): synergist alone, from checkerboard with erythromycin; for MIC of the peptide (MICpep) / MSCpeptide, minimum synergistic concentration: E. coli BW25113, LB, 20 h 37 °C; for MSCpeptide, minimum synergistic concentration: synergist concentration in the combination with erythromycin giving the lowest FICi, OD600; for FICi: with erythromycin vs E. coli BW25113, synergy defined as FICi ≤ 0.5
Experimental: as §1, §2, §3, §4

Compound	MICpep [2]	MIC of the peptide (MICpep) [3]	Hemolysis [1]	FICi [2]	MSCpep [2]	MSCery [3]	MSCpeptide, minimum synergistic concentration [3]	FICi [3]	MSCrif [2]
CC[C@H](C)[C@H](NC(=O)[C@@H](NC(=O)[C@H](C)NC(=O)[C@H](CCC(N)=O)NC(=O)[C@@H](NC(=O)[C@H](Cc1c[nH]c2ccccc12)NC(=O)[C@H](CCCCN)NC(=O)[C@H](CCCCN)NC(=O)[C@H](CC(C)C)NC(=O)[C@H](CCCNC(=N)N)NC(=O)[C@H](Cc1ccccc1)NC(=O)[C@@H](N)C(C)C)[C@@H](C)CC)C(C)C)C(N)=O [compound 17] (H-VFRLKKWIQAVI-NH2)	25 µg/mL	12.5 µg/mL	20.7% and 21%	0.2656	6.25 µg/mL	6.25 µg/mL	6.25 µg/mL	> 0.5	
CC[C@H](C)[C@H](NC(=O)[C@H](C)NC(=O)[C@H](CCCCN)NC(=O)[C@H](CCC(N)=O)NC(=O)[C@@H](NC(=O)[C@H](Cc1c[nH]c2ccccc12)NC(=O)[C@H](CCCCN)NC(=O)[C@H](CCCCN)NC(=O)[C@H](CC(C)C)NC(=O)[C@H](CCCNC(=N)N)NC(=O)[C@H](Cc1ccccc1)NC(=O)[C@@H](N)C(C)C)[C@@H](C)CC)C(N)=O [compound 18] (H-VFRLKKWIQKAI-NH2)	50 µg/mL	50 µg/mL	2.3% and 2%	0.0781	3.125 µg/mL	12.5 µg/mL	3.125 µg/mL	0.1250	
CC[C@H](C)[C@H](NC(=O)[C@@H](NC(=O)[C@H](CCCCN)NC(=O)[C@H](CCC(N)=O)NC(=O)[C@@H](NC(=O)[C@H](Cc1c[nH]c2ccccc12)NC(=O)[C@H](CCCCN)NC(=O)[C@H](CCCCN)NC(=O)[C@H](CC(C)C)NC(=O)[C@H](CCCNC(=N)N)NC(=O)[C@H](Cc1ccccc1)NC(=O)[C@@H](N)C(C)C)[C@@H](C)CC)C(C)C)C(=O)O [peptide 1] (H-VFRLKKWIQKVI-OH)	200 µg/mL	200 µg/mL	0.1% and 0%		12.5 µg/mL	12.5 µg/mL	25 µg/mL		0.25 µg/mL
CC[C@H](C)[C@H](NC(=O)[C@@H](NC(=O)[C@H](CCCCN)NC(=O)[C@H](CCC(N)=O)NC(=O)[C@@H](NC(=O)[C@H](Cc1c[nH]c2ccccc12)NC(=O)[C@H](CCCCN)NC(=O)[C@H](CCCCN)NC(=O)[C@H](CC(C)C)NC(=O)[C@H](CCCNC(=N)N)NC(=O)[C@H](Cc1ccccc1)NC(=O)[C@@H](NC(C)=O)C(C)C)[C@@H](C)CC)C(C)C)C(=O)O [peptide 5] (Ac-VFRLKKWIQKVI-OH)	> 200 µg/mL	> 200 µg/mL	0.2% and 0%		50 µg/mL	6.25 µg/mL	50 µg/mL		0.25 µg/mL
CC[C@H](C)[C@H](NC(=O)[C@@H](NC(=O)[C@H](CCCCN)NC(=O)[C@H](CCC(N)=O)NC(=O)[C@@H](NC(=O)[C@H](Cc1c[nH]c2ccccc12)NC(=O)[C@H](CCCCN)NC(=O)[C@H](CCCCN)NC(=O)[C@H](CC(C)C)NC(=O)[C@H](CCCNC(=N)N)NC(=O)[C@H](Cc1ccccc1)NC(=O)[C@@H](NC(C)=O)C(C)C)[C@@H](C)CC)C(C)C)C(N)=O [peptide 7] (Ac-VFRLKKWIQKVI-NH2)	50 µg/mL	50 µg/mL	4.6% and 5%		12.5 µg/mL	3.125 µg/mL	12.5 µg/mL		

More lines, main results first:

MICpep [2]	MIC of the peptide (MICpep) [3]	Compound	Hemolysis [1]	FICi [2]	MSCpep [2]	MSCery [3]	MSCpeptide, minimum synergistic concentration [3]	FICi [3]	MSCrif [2]
12.5 µg/mL	12.5 µg/mL	CC[C@H](C)[C@H](NC(=O)[C@@H](NC(=O)[C@H](CCCCN)NC(=O)[C@H](CCC(N)=O)NC(=O)[C@@H](NC(=O)[C@H](Cc1c[nH]c2ccccc12)NC(=O)[C@H](CCCCN)NC(=O)[C@H](CCCCN)NC(=O)[C@H](CC(C)C)NC(=O)[C@H](CCCNC(=N)N)NC(=O)[C@H](Cc1ccccc1)NC(=O)[C@H](C)N)[C@@H](C)CC)C(C)C)C(N)=O [peptide 8] (H-AFRLKKWIQKVI-NH2)	1.5% and 2%	0.1406	1.563 µg/mL	12.5 µg/mL	1.563 µg/mL		
200 µg/mL	50 µg/mL	CC[C@H](C)[C@H](NC(=O)[C@@H](NC(=O)[C@H](CCCCN)NC(=O)[C@H](CCC(N)=O)NC(=O)[C@@H](NC(=O)[C@H](Cc1c[nH]c2ccccc12)NC(=O)[C@H](CCCCN)NC(=O)[C@H](CCCCN)NC(=O)[C@H](CC(C)C)NC(=O)[C@H](CCCNC(=N)N)NC(=O)[C@H](C)NC(=O)[C@@H](N)C(C)C)[C@@H](C)CC)C(C)C)C(N)=O [peptide 9] (H-VARLKKWIQKVI-NH2)	0.1% and 0%	0.1406	25 µg/mL	12.5 µg/mL	3.125 µg/mL	0.1250	
12.5 µg/mL	6.25 µg/mL	CC[C@@H](C)[C@@H](NC(=O)[C@H](NC(=O)[C@@H](CCCCN)NC(=O)[C@@H](CCC(N)=O)NC(=O)[C@H](NC(=O)[C@@H](Cc1c[nH]c2ccccc12)NC(=O)[C@@H](CCCCN)NC(=O)[C@@H](CCCCN)NC(=O)[C@@H](CC(C)C)NC(=O)[C@@H](CCCNC(=N)N)NC(=O)[C@@H](Cc1ccccc1)NC(=O)[C@H](N)C(C)C)[C@H](C)CC)C(C)C)C(N)=O [peptide 20] (H-[dV][dF][dR][dL][dK][dK][dW][dI][dQ][dK][dV][dI]-NH2)	3.2% and 3%	0.2813	3.125 µg/mL	3.125 µg/mL	3.13 µg/mL		0.25 µg/mL
> 200 µg/mL	> 200 µg/mL	CC[C@H](C)[C@H](N)C(=O)N[C@H](C(=O)N[C@@H](CCCCN)C(=O)N[C@@H](CCC(N)=O)C(=O)N[C@H](C(=O)N[C@@H](Cc1c[nH]c2ccccc12)C(=O)N[C@@H](CCCCN)C(=O)N[C@@H](CCCCN)C(=O)N[C@@H](CC(C)C)C(=O)N[C@@H](CCCNC(=N)N)C(=O)N[C@@H](Cc1ccccc1)C(=O)N[C@H](C(N)=O)C(C)C)[C@@H](C)CC)C(C)C [peptide 21] (H-IVKQIWKKLRFV-NH2)	2.2% and 2%	0.3750	50 µg/mL	25 µg/mL	50 µg/mL	0.2500	2 µg/mL
